According to US9447075B2, “Pyridazine derivatives as EAAT2 activators” (The Brigham and Women's Hospital, Inc., priority 2011, dated 2016):
Values joined by “and” are separate entries in the source; they are usually repeats but may differ in a detail not shown here. Identical values can stand only once.

Tested on: EAAT2
Test: EAAT2 protein levels in PA-EAAT2 cells by Western blot
Type: cell-based, human
Conditions: for Fold increase for EAAT2, 4 h / Fold increase for EAAT2, 24 h: compound 10 μM, PA-EAAT2 cells, relative to DMSO controls, na = not active; for Fold increase for EAAT2, 4 h: 4 h incubation; for Fold increase for EAAT2, 24 h: 24 h incubation; for SAR comparison of activity on EAAT2 protein levels, in words: relative to parent/comparator analogue, Tables 1-4; for Improvement of potency/activity compared to 1: compared to compound 1, Table 4
Protocol: All of the derivates of 1 were initially evaluated in PA-EAAT2 cells^3 (a primary astrocyte line stably expressing EAAT2 mRNAs) following compound (10 μM) incubation for 4 and 24 h before harvesting and measuring EAAT2 levels by Western blot analysis. The fold increases in EAAT2 protein levels relative to DMSO controls are reported (Tables 1-4).
Characterization and efficacy studies of a compound, Compound 212320 (FIG. 6A) is shown. […] In the absence of serum, PA-EAAT2 cells express low amounts of EAAT2 protein, although the recombinant EAAT2 mRNA are expressed (translational silencing); however, EAAT2 protein levels are increased when an activator is added to the culture (translational activation). This cell line was used for high-throughput screening to identify EAAT2 translational activators. To prioritize candidate compounds, we initially evaluated activation of EAAT2 protein in PA-EAAT2 cells. Promising compounds were further evaluated in primary dissociated neuron and astrocyte mixed cultures and then in mice. FIG. 6 presents the characterization of Compound 212320 in PA-EAAT2 cells. Compound 212320 increased EAAT2 protein levels in a dose—(FIG. 6B) and time—(FIG. 6C) dependent manner. Importantly, the induction occurred in a short amount of time (within 1-2 hr) and was sustained even up to 72 hr (data not show). Additionally, induction occurred at low nanomolar concentrations. […] (FIG. 6D).

Compound | Fold increase for EAAT2, 4 h | Fold increase for EAAT2, 24 h | SAR comparison of activity on EAAT2 protein levels, in words | Improvement of potency/activity compared to 1 | Activity (EAAT2 increase), in words (compounds 23-27 assessed)
CC(Oc1ccc(-c2ccccn2)nn1)c1c(F)cccc1Cl (racemic) [Compound 8-4] | 1.6 ± 0.2 fold | 3.0 ± 0.7 fold | – | – | –
Cc1ccccc1COc1ccc(-c2ccccn2)nc1 [Compound 15] | 1.5 ± 0.3 fold | – | – | – | –
Cc1ccccc1COc1ccc(-c2ccccn2)nn1 [Compound 8-1] | 2.0 ± 0.9 fold | 2.5 ± 0.5 fold | – | – | –
Cc1ccccc1CSc1ccc(-c2ccccc2)nn1 [Compound 7-6] | 1.1 ± 0.1 fold | 2.0 ± 0.4 fold | reduced activity | – | –
Cc1ccccc1CSc1ccc(-c2cccnc2)nn1 [Compound 7-5] | 1.5 ± 0.4 fold | – | reduced activity | – | –
Clc1ccc(Cl)c(CSc2ccc(-c3ccccn3)nn2)c1 [Compound 7-20] | 1.4 ± 0.1 fold | 2.5 ± 0.4 fold | equivalent to 1 | – | –
Clc1cccc(CSc2ccc(-c3ccccn3)nn2)c1Cl [Compound 7-19] | – | 2.4 ± 0.4 fold | equivalent to 1 | – | –
Clc1ccccc1CSc1ccc(-c2ccccn2)nn1 [Compound 7-7] | 2.1 ± 1.4 fold | 4.0 ± 0.3 fold | – | two-fold | –
Cc1ccccc1CNc1ccc(-c2ccccn2)nn1 [Compound 14] | 1.7 ± 1.1 fold | 2.6 ± 0.5 fold | weaker activity | – | –
c1ccc(CSc2ccc(-c3ccccn3)nn2)cc1 [Compound 7-12] | 1.3 ± 0.2 fold | 3.0 ± 0.4 fold and 3.0 ± 0.5 fold | essentially the same potency as 1 | – | –
Fc1ccc(COc2ccc(-c3ccccn3)nn2)c(F)c1 [Compound 8-6] | – | 2.3 ± 0.6 fold | – | – | –
Fc1ccc(Sc2ccc(-c3ccccn3)nn2)c(Cl)c1 [Compound 7-34] | 1.3 ± 0.1 fold | 2.5 ± 0.7 fold | – | – | –
Fc1cc(F)c(CSc2ccc(-c3ccccn3)nn2)c(F)c1 [Compound 7-26] | 1.6 ± 1.0 fold | 2.4 ± 0.6 fold | did not result in significant improvement | – | –
Cc1ccc(-c2ccc(SCc3c(F)cccc3Cl)nn2)cc1 [Compound 7-3] | 1.2 ± 0.2 fold | 2.3 ± 0.7 fold | – | – | –
c1ccc(CSc2ccc(-c3ccccn3)cc2)cc1 [Compound 19] | 1.2 ± 0.5 fold | 1.1 ± 0.4 fold | – | – | –
Clc1ccccc1CSc1ccc(-c2ccncc2)nn1 [Compound 7-9] | 1.5 ± 0.2 fold | 1.7 ± 0.3 fold | reduced activity | – | –
Clc1ccccc1CSc1ccc(-c2cccnc2)nn1 [Compound 7-8] | 1.2 ± 0.4 fold | 1.2 ± 0.3 fold | reduced activity | – | –
Clc1cccc(CSc2ccc(-c3ccccn3)nn2)c1 [Compound 7-18] | 2.1 ± 0.3 fold | 4.1 ± 0.5 fold | – | two-fold | –
c1ccc(-c2ccc(SC3CCCc4ccccc43)nn2)nc1 (racemic) [Compound 7-33] | – | 5.3 ± 1.1 fold | – | about 3 fold | –
Fc1cccc(F)c1CSc1ccc(-c2ccccn2)nn1 [Compound 7-25] | 2.1 ± 1.4 fold | 2.2 ± 0.7 fold | did not result in significant improvement | – | –

Compound | Fold increase for EAAT2, 4 h | Fold increase for EAAT2, 24 h | SAR comparison of activity on EAAT2 protein levels, in words | Improvement of potency/activity compared to 1 | Activity (EAAT2 increase), in words (compounds 23-27 assessed)
Cc1cccc(C)c1CSc1ccc(-c2ccccn2)nn1 [Compound 7-13] | – | 6.5 ± 1.0 fold | increased potency | – | –
Cc1ccccc1CS(=O)(=O)c1ccc(-c2ccccn2)nn1 [Compound 9-2] | 2.3 ± 0.4 fold | 1.1 ± 0.2 fold | detrimental | – | –
Sc1ccc(-c2ccccn2)nn1 [Compound 6-1] | – | 2.0 ± 0.8 fold | essentially the same potency as 1 | – | –
Cc1cc(C)c(CSc2ccc(-c3ccccn3)nn2)c(C)c1 [Compound 7-30] | 1.7 ± 0.3 fold | 4.7 ± 0.5 fold | increased potency | – | –
Fc1cccc(Cl)c1CCSc1ccc(-c2ccccn2)nn1 [Compound 7-15] | 1.9 ± 0.7 fold | 6.7 ± 1.5 fold | more potent | – | –
Cc1ccccc1CCSc1ccc(-c2ccccn2)nn1 [Compound 7-32] | 1.2 ± 0.3 fold | 2.8 ± 0.4 fold | exception | – | –
Cc1ccccc1CNC(=O)c1ccc(-c2ccccn2)nn1 [Compound 17-2] | – | 1.4 ± 0.2 fold | not tolerated | – | –
CC(Sc1ccc(-c2ccccn2)nn1)c1c(F)cccc1Cl (racemic) [Compound 7-14] | 1.7 ± 0.9 fold | 5.5 ± 1.0 fold | – | about 3 fold | –
Cc1ccc(CSc2ccc(-c3ccccn3)nn2)c(C)c1 [Compound 7-17] | 1.9 ± 0.8 fold | 6.4 ± 1.0 fold | increased potency | – | –
Cc1ccc(CSc2ccc(-c3ccncc3)nn2)cc1 [Compound 7-11] | 1.3 ± 0.1 fold | 2.4 ± 0.6 fold | reduced activity | – | –
Fc1cccc(Cl)c1CSc1ccc(-c2cccnc2)nn1 [Compound 7-1] | – | 2.3 ± 0.8 fold | reduced activity | – | –
Cc1ccc(CSc2ccc(-c3ccccn3)nn2)cc1 [Compound 7-28] | – | – | less potent | – | –
Fc1ccc(CSc2ccc(-c3ccccn3)nn2)c(F)c1 [Compound 7-16] | 2.4 ± 1.5 fold | 3.8 ± 0.8 fold | improved activity | – | –
O=S(=O)(Cc1ccccc1Cl)c1ccc(-c2ccccn2)nn1 [Compound 9-3] | 1.6 ± 0.3 fold | – | detrimental | – | –
Fc1ccc(CSc2ccc(-c3ccccn3)nn2)cc1 [Compound 7-24] | 2.5 ± 0.6 fold | 2.6 ± 0.3 fold | did not result in significant improvement | – | –
CC(C)OC(=O)c1ccc(-c2ccccn2)nn1 [Compound 27] | – | – | – | – | active
Clc1cccc(Cl)c1CSc1ccc(-c2ccccn2)nn1 [Compound 7-22] | 1.5 ± 0.8 fold | 3.9 ± 0.4 fold | – | two-fold | –
CCCNC(=O)c1ccc(-c2ccccn2)nn1 [Compound 17-1] | – | 1.2 ± 0.2 fold | not tolerated | – | –
O=S(=O)(Cc1c(F)cccc1Cl)c1ccc(-c2ccccn2)nn1 [Compound 9-1] | 1.4 ± 0.3 fold | 2.8 ± 0.4 fold | detrimental | – | –
Cc1ccccc1CSc1ccc(-c2ccccn2)cn1 [Compound 22] | 1.3 ± 0.6 fold | – | – | – | –
